In general, Kd refers to the concentration at which binding is half-saturated.

We go through one compound from article PMC7689916, “A Fluorescence Resonance Energy Transfer-Based Analytical Tool for Nitrate Quantification in Living Cells” (ACS Omega, 2020).

Test in all cases: FRET ratio (YFP/CFP, […] nm) titration of purified sensor
Common to all, as to assay type: binding

For experiment [1], the target named is T1, NrtA (FLIP-NT; CFP_NrtA_YFP) (Synechocystis sp. PCC 6803, UniProt P73452, G240Q).
T1 construct: FRET sensor: His6-CFP-NrtA-YFP; NrtA without signal peptide (first 36 residues), stop and penultimate codon removed (1227 bp, 409 residues); E. coli BL21-CodonPlus(DE3), Ni-NTA
T1 sequence (P73452 37-445 G240Q): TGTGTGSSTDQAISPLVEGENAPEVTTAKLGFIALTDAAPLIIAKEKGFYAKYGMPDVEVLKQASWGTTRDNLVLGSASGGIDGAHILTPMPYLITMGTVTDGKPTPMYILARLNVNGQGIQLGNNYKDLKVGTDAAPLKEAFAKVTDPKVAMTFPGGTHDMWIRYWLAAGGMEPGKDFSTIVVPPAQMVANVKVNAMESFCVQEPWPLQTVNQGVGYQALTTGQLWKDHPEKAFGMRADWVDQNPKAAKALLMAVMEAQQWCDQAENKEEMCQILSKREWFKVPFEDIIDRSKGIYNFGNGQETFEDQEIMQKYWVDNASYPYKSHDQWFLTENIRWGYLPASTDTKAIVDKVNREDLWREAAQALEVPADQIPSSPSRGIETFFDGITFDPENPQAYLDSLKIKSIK

The target in experiment [2] is T2, NrtA (FLIP-NT; CFP_NrtA_YFP) (Synechocystis sp. PCC 6803, UniProt P73452).
T2 construct: FRET sensor: His6-CFP-NrtA-YFP; NrtA without signal peptide (first 36 residues), stop and penultimate codon removed (1227 bp, 409 residues); E. coli BL21-CodonPlus(DE3), Ni-NTA
T2 sequence (P73452 37-445): T1 sequence (P73452 37-445 G240Q) with Q204G

The target of experiment [3] is T3, NrtA (FLIP-NT; CFP_NrtA_YFP) (Synechocystis sp. PCC 6803, UniProt P73452, Q155I).
T3 construct: FRET sensor: His6-CFP-NrtA-YFP; NrtA without signal peptide (first 36 residues), stop and penultimate codon removed (1227 bp, 409 residues); E. coli BL21-CodonPlus(DE3), Ni-NTA
T3 sequence (P73452 37-445 Q155I): T1 sequence (P73452 37-445 G240Q) with Q119I, Q204G

The target in experiment [4] is T4, NrtA (FLIP-NT; CFP_NrtA_YFP) (Synechocystis sp. PCC 6803, UniProt P73452, W102A).
T4 construct: FRET sensor: His6-CFP-NrtA-YFP; NrtA without signal peptide (first 36 residues), stop and penultimate codon removed (1227 bp, 409 residues); E. coli BL21-CodonPlus(DE3), Ni-NTA
T4 sequence (P73452 37-445 W102A): T1 sequence (P73452 37-445 G240Q) with W66A, Q204G

Changes are numbered by the printed parent chain.

Turning to `O=[N+]([O-])O` [nitrate], the Kd in experiment [1] was 32 µM; in experiment [2] it was 5 µM; in experiment [3], 1 µM; in experiment [4], 56 µM.
